Values after ≈ are worked out from the molar mass of the structure shown. Like-named read-outs stand apart in the source and are kept apart here.
Assays:
[1] = Solubility comparison in the cosmetic oil isopropyl myristate; assay type: physicochemical; conditions: for solubility: isopropyl myristate, organic solvent or mixture, Isopropylmyristat, read-out: Löslichkeiten
Method: Im Parallelversuch werden 20mg der Substanz 4a mit zunächst 800µL Isopropylmyristat versetzt. […] Daraus errechnen sich Löslichkeiten für 1 a von mindestens 2,5% bzw. für 4a von maximal 1,0% bezogen auf das eingesetzte Volumen Öl. Im anschließenden Verifizierungsexperiment bei Raumtemperatur von 23°C ergeben sich Löslichkeiten von 2,4% für 1 a sowie 0,4% für 4a.

[2] = In-situ generation of 4a from 1a under sun-simulated radiation (Suntester), HPLC analysis; assay type: physicochemical; conditions: 5mg 1a in 10 mL Ethanol
Method: 5mg der Substanz 1 a werden in 10 mL Ethanol gelöst. Mit der Lösung wird ein NMR-Röhrchen vollständig befüllt, verschlossen und für 4 Stunden im Suntester sonnensimulierter Strahlung ausgesetzt (Atlas CPS+ Suntester, 765 Wm^-2). Nach Bestrahlung wird die Lösung per HPLC untersucht. Im Dunkelexperiment ist die Substanz 4a abwesend, während im Belichtungexperiment Substanz 4a zu 2% bei der Detektionswellenlänge von 272nm nachgewiesen wird.

[3] = 30°C, bezogen auf das eingesetzte Volumen Öl, calculated from 20mg in 800µL (1a) or 800µL + 1200µL (4a)
[4] = Verifizierungsexperiment bei Raumtemperatur von 23°C

Row | SMILES | Dissolution of 20mg in 800µL Isopropylmyristat ([1]; 20mg, 30°C) | solubility [1, 3] | solubility [1, 4] | Substanz 4a nachgewiesen (HPLC) im Belichtungexperiment ([2]; 4 Stunden sonnensimulierte Strahlung (Atlas CPS+ Suntester, 765 Wm^-2), Detektionswellenlänge 272nm) | Substanz 4a (HPLC) im Dunkelexperiment ([2]; no irradiation) | Dissolution of 20mg after addition of further 1200µL Isopropylmyristat ([1]; 20mg, 800µL + 1200µL Isopropylmyristat)
1 | COc1ccc(C(=O)/C=C/c2ccc(C(C)(C)C)cc2)cc1 [1a, E-3-(4-tert.-Butyl-phenyl)-1-(4-methoxy-phenyl)-propenon] | vollständig gelöst | ≥ 25 mg/mL | 24 mg/mL (≈ 81.5 mM) | 2% | abwesend | 
2 | COc1ccc2c(c1)C(c1ccc(C(C)(C)C)cc1)CC2=O (stereo not drawn) [4a, 3-(4-tert.-Butyl-phenyl)-5-methoxy-indan-1-on] | keine vollständige Löslichkeit | ≤ 10 mg/mL | 4 mg/mL (≈ 13.6 mM) |  |  | deutlicher Bodensatz in der trüben Dispersion

— patent EP2600854B1, “PHENETHYL, PHENETHYLENE, PHENETHYNE AND INDANONE DERIVATES IN COSMETIC FORMULATIONS, ESPECIALLY FOR USE IN SKIN AGEING PROCESSES” (Merck Patent GmbH, priority 2010, dated 2012)
